Results reported in patent US10807968B2, “Substituted 2-(het)arylimidazolylcarboxyamides as pesticides” (Bayer CropScience Aktiengesellschaft, priority 2016, dated 2020).
Where two headings read alike, the source gives them in different places.

Tests used:
Myzus persicae [1] = assay: Myzus persicae - spray test (MYZUPE), comparison with prior art; format: in vivo; details: read-out: % efficacy dat
Experimental: Myzus persicae—Spray Test (MYZUPE)
Solvent: 78.0 parts by weight of acetone • • 1.5 parts by weight of dimethylformamide
(§1) Emulsifier: alkylaryl polyglycol ether
To produce a suitable preparation of active compound, 1 part by weight of active compound is dissolved using the specified parts by weight of solvent and made up with water containing an emulsifier concentration of 1000 ppm until the desired concentration is attained. To produce further test concentrations, the formulation is diluted with emulsifier-containing water.
Discs of Chinese cabbage leaves (Brassica pekinensis) infested by all stages of the green peach aphid (Myzus persicae) are sprayed with an active compound preparation of the desired concentration.
After the desired period of time, the efficacy in % is determined. 100% means that all the aphids have been killed; 0% means that no aphids have been killed.

Myzus persicae [2] = assay: Myzus persicae - oral test (MYZUPE O), comparison with prior art; format: in vivo; details: 120 h, read-out: % efficacy dat
Experimental: Myzus persicae—Oral Test (MYZUPE O)
(§2) Solvent: 100 parts by weight of acetone
To produce a suitable preparation of active compound, 1 part by weight of active compound is dissolved using the specified parts by weight of solvent and made up with water until the desired concentration is attained.
50 μl of the active compound preparation are transferred into microtitre plates and made up to a final volume of 200 μl with 150 μl of IPL41 insect medium (33%+15% sugar). Subsequently, the plates are sealed with parafilm, which a mixed population of green peach aphids (Myzus persicae) within a second microtitre plate is able to puncture and imbibe the solution through it.
After 5 or 6 days (dat), the efficacy in % is determined. 100% means that all the aphids have been killed; 0% means that no aphids have been killed.

[3] = log P determination by HPLC on reversed-phase (C18) columns, OECD Guideline 117; format: physicochemical; details: for chromatographic logP: reversed-phase (C18) HPLC column
Experimental: The log P values were determined in accordance with OECD Guideline 117 (EC Directive 92/69/EEC) by HPLC (high-performance liquid chromatography) using reversed-phase (RP) columns (C18), by the following methods:
[a] The LC-MS determination in the acidic range was carried out at pH 2.7 with 0.1% aqueous formic acid and acetonitrile (contains 0.1% formic acid) as mobile phases; linear gradient from 10% acetonitrile to 95% acetonitrile.
[b] LC-MS determination in the neutral range was carried out at pH 7.8 with 0.001 molar aqueous ammonium hydrogencarbonate solution and acetonitrile as mobile phases; linear gradient from 10% acetonitrile to 95% acetonitrile.

Myzus persicae [4] = assay: Myzus persicae - oral test; format: in vivo; details: after 5 days; for pest or weed control at 20 ppm: Myzus persicae, 120 h, read-out: efficacy in % (aphids killed); for efficacy in % (aphids killed): 20 ppm
Experimental: as §2
Subsequently, the plates are sealed with parafilm, which a mixed population of green peach aphids (Myzus persicae) within a second microtitre plate is able to puncture and imbibe the solution through it.
After 5 days, the efficacy in % is determined. 100% means that all the aphids have been killed; 0% means that no aphids have been killed.

Myzus persicae [5] = assay: Myzus persicae - spray test (Chinese cabbage leaf discs); format: in vivo; details: 500 g/ha, after 6 days; for pest or weed control at 500 g/ha: Myzus persicae, foliar, 144 h, read-out: efficacy in % (aphids killed)
Experimental: Myzus persicae—Spray Test
Solvent: 78 parts by weight of acetone • • 1.5 parts by weight of dimethylformamide
as §1
To produce a suitable preparation of active compound, 1 part by weight of active compound is dissolved using the specified parts by weight of solvent and made up with water containing an emulsi fier concentration of 1000 ppm until the desired concentration is attained. To produce further test concentrations, the formulation is diluted with emulsifier-containing water.
Discs of Chinese cabbage leaves (Brassica pekinensis) infested by all stages of the green peach aphid (Myzus persicae) are sprayed with an active compound formulation of the desired concentration.
After 6 days, the efficacy in % is determined. 100% means that all the aphids have been killed; 0% means that no aphids have been killed.

Myzus persicae [6] = assay: Myzus persicae - spray test (bell pepper plants); format: in vivo; details: 20 ppm, after 6 days
Experimental: Myzus persicae—Spray Test Solvent: 14 parts by weight of dimethylformamide Emulsifier: alkylaryl polyglycol ether […] To produce further test concentrations, the formulation is diluted with emulsifier-containing water. If the addition of ammonium salts or/and penetrants is required, these are each added in a concentration of 1000 ppm to the formulation solution. Bell pepper plants (Capsicum annuum) severely infested with the green peach aphid (Myzus persicae) are treated by spraying with the active compound formulation in the desired concentration.

[7] = 144 h, MYZUPE, 100 g ai/ha, 6 dat
[8] = pH 2.7, HPLC, acidic range pH 2.7, 0.1% aqueous formic acid/acetonitrile, read-out: logp-acidic
[9] = pH 7.8, HPLC, neutral range pH 7.8, 0.001 molar aqueous ammonium hydrogencarbonate/acetonitrile, read-out: logp-neutral
[10] = HPLC, acidic range pH 2.7, 0.1% aqueous formic acid/acetonitrile
[11] = 120 h, MYZUPE, 100 g ai/ha, 5 dat

SMILES	Emax at 4 ppm (Myzus persicae [2]; MYZUPE O, 4 ppm, 5 dat) [%]	chromatographic logP [3, 8]	chromatographic logP [3, 9]	pest or weed control at 20 ppm (Myzus persicae [4]) [%]	pest or weed control at 500 g/ha (Myzus persicae [5]) [%]	efficacy in % (aphids killed) (Myzus persicae [4]) [%]	logp-acidic ([3]; pH 2.7)	logp-neutral ([3]; pH 7.8)	efficacy in % (aphids killed) (Myzus persicae [5]) [%]	other results
Cc1nc(C(=O)Nc2cccnc2)c[nH]1 [Comparative Ex. 1, reference compound]	0	–	–	–	–	–	–	–	–	Emax at 100 g/ha (Myzus persicae [1]; MYZUPE, 100 g ai/ha, 5/6 dat): 0%
O=C(Nc1cccnc1)c1c[nH]cn1 [Comparative Ex. 2, reference compound]	0	–	–	–	–	–	–	–	–	Emax at 100 g/ha (Myzus persicae [1]; [7]): 0%
CN(C(=O)c1cnc(-c2ncccn2)n1C)c1cccnc1 [Example 4]	100	0.35	0.73	100	90	–	–	–	–	Emax at 100 g/ha (Myzus persicae [1]; [7]): 90%
CN(C(=O)c1cnc(-c2ccc(Cl)cc2Cl)n1C)c1cccnc1 [Example 12]	–	–	–	–	–	100	–	–	–	kill in % (aphids killed) (Myzus persicae [6]): 100%; logp-acidic [3, 10]: 1.66
CN(C(=O)c1cnc(-c2ccc(C#N)c(C(F)(F)F)c2)n1C)c1cccnc1 [Example 16]	–	–	–	–	–	–	–	–	–	Emax at 100 g/ha (Myzus persicae [1]; 144 h): 90%; Emax at 4 ppm (Myzus persicae [2]): 100%
CN(C(=O)c1cnc(-c2cncc(C#N)c2)n1C)c1cccnc1 [Example 64]	–	0.75	0.98	100	90	–	–	–	–	Emax at 100 g/ha (Myzus persicae [1]; 120 h): 90%; Emax at 4 ppm (Myzus persicae [2]): 100%
CN(C)c1ncc(-c2ncc(C(=O)N(C)c3cccnc3)n2C)cc1C#N [Example 65]	100	1.1	1.5	100	100	–	–	–	–	Emax at 100 g/ha (Myzus persicae [1]; [11]): 90%
COc1ncc(-c2ncc(C(=O)N(C)c3cccnc3)n2C)cc1C#N [Example 68]	100	1.2	1.44	100	100	–	–	–	–	Emax at 100 g/ha (Myzus persicae [1]; [11]): 100%
COc1cccc(-c2ncc(C(=O)N(C)c3cccnc3)n2C)n1 [Example 78]	100	1.23	1.6	100	90	–	–	–	–	Emax at 100 g/ha (Myzus persicae [1]; [11]): 70%
COc1ccc(-c2ncc(C(=O)N(C)c3cccnc3)n2C)c(OC)n1 [Example 81]	70	0.89	1.69	100	100	–	–	–	–	Emax at 100 g/ha (Myzus persicae [1]; [11]): 70%
COc1ncc(Cl)cc1-c1ncc(C(=O)N(C)c2cccnc2)n1C [Example 87]	100	1.35	1.64	100	100	–	–	–	–	Emax at 100 g/ha (Myzus persicae [1]; [11]): 90%
CCOc1ncccc1-c1ncc(C(=O)N(C)c2cccnc2)n1C [Example 92]	–	–	–	–	–	100	0.8	1.43	90	–
COc1cc(-c2ncc(C(=O)N(C)c3cccnc3)n2C)cnc1OC [Example 93]	–	–	–	–	–	100	0.66	1.28	90	–
COc1cc(-c2ncc(C(=O)N(C)c3cccnc3)n2C)ccn1 [Example 94]	–	–	–	–	–	100	1	1.26	90	–
COc1ncc(-c2ncc(C(=O)N(C)c3cccnc3)n2C)cc1C(F)(F)F [Example 95]	–	–	–	–	–	100	1.75	2	100	–
COc1cc(-c2ncc(C(=O)N(C)c3cccnc3)n2C)cc(OC)n1 [Example 97]	–	–	–	–	–	100	1.37	1.67	100	–
COc1cc(-c2ncc(C(=O)N(C)c3cccnc3)n2C)cc(C(F)(F)F)n1 [Example 99]	100	2.05	2.23	100	90	–	–	–	–	Emax at 100 g/ha (Myzus persicae [1]; [11]): 70%
COc1cc(C#N)cc(-c2ncc(C(=O)N(C)c3cccnc3)n2C)c1 [Example 100]	–	–	–	–	–	100	–	–	90	logp-acidic [3, 10]: 1.34; logp-neutral ([3]; HPLC, neutral range pH 7.8, 0.001 molar aqueous ammonium hydrogencarbonate/acetonitrile): 1.57
COc1ncc(F)cc1-c1ncc(C(=O)N(C)c2cccnc2)n1C [Example 101]	–	–	–	–	–	100	0.91	1.38	100	–
CC(C)Oc1ccc(-c2ncc(C(=O)N(C)c3cccnc3)n2C)cn1 [Example 102]	–	–	–	–	–	100	1.21	1.79	90	–
COc1ccc(-c2ncc(C(=O)N(C)c3cccnc3)n2C)cn1 [Example 103]	–	–	–	–	–	100	0.58	1.25	100	–
CN(C(=O)c1cnc(-c2ccccc2OCC(N)=O)n1C)c1cccnc1 [Example 104]	–	–	–	–	–	100	0.23	1.03	100	–
CN(C(=O)c1cnc(-c2ncccc2Cl)n1C)c1cccnc1 [Example 106]	–	–	–	–	–	90	0.75	1.1	90	–
